Consider 2 molecules from publication PMC13289212, “HIVIL: A human in vitro inflammatory liver model recapitulates immune-associated drug effects with high predictivity” (NAM journal, 2025).

Data set [1] deals with IL-6. Briefly: IL-6 ELISA in HIVIL (iKCs co-cultured with iHeps, LPS, 48 hr). The data set is classed as cell-based, human. As to conditions: for IL-6 response: result in words; for IC50: Homo sapiens, LPS, 48 hr. The text has this:
Human iPSC cell line iPS (IMR90)-4 was purchased from WiCell Research Institute (Madison, WI), and maintained with a feeder-free method according to the instruction from […] Technologies (Vancouver, BC, Canada). The protocol of differentiation towards iKCs and iHeps as described previously with slight modification ([Tasnim et al., 2019]; [Cai et al., 2012]), respectively. […] More details are provided in Supplementary Methods. After differentiation, iKCs was harvested using 0.05 % trypsin-EDTA (Gibco, Waltham, Massachusetts, USA), while iHeps were dissociated with TrypLE^TM (Gibco). iHep suspension was further filtered through a 40 µm cell strainer to remove extracellular matrix clumps. Cell suspension was centrifuged at 1000 rpm for 5 min. For co-culture set up, tissue culture plates were coated with Rat tail collagen I (Gibco) diluted 100-fold in 0.02 N acetic acid, and incubated at 37 °C for 1 h and washed 3 times with PBS. According to the protocol optimized by [Tasnim et al. (2019)], iKCs was firstly seeded at a density of 14,000 per well on 96-well plate with Advanced DMEM (plus supplements) containing 5 % FBS. On the following day, iHeps were added at a density of 35,000 per well in Williams’ Medium E (plus supplements) (iHep: iKCs ratio = 2.5: 1). This reflects the physiological ratio of these cells in vivo under inflammatory conditions ([Tasnim et al., 2021]). Fresh media containing drugs was applied to co-cultures the next day. 50,000 cells were seeded to establish iHeps monoculture. THP-1 cells were kindly obtained from Dr. Eliza Fong and cultured as described by [Zeng et al. (2015)]. Details provided in Supplementary Methods.
(§1) Stock solutions of drugs were prepared in dimethyl sulfoxide (DMSO) and dissolved in medium prior to use. […] For these two drugs, the highest DMSO concentration was 1 %. Supernatant was collected at 48 hr for measurement of cytokines, and remaining cells were subjected to viability assay prior to lysis for RNA extraction.
Enzyme-linked immunosorbent assay (ELISA) for measurement of cytokines: Interleukin-6 (IL-6), interleukin-10 (IL-10) and tumor necrosis factor alpha (TNFα) levels in the media were measured using the corresponding human-based ELISA kits (Abcam, Cambridge, United Kingdom) according to manufacturer’s instructions. The cytokine production from dosed cells was normalized with the viability value from the same well. The normalized cytokine level upon drug treatments was further presented as percentage of DMSO+LPS. […] This normalization approach has been used in previous studies (Rose et al. 2016).

In data set [2] the test system is HIVIL (iKCs co-cultured with iHeps). Briefly: AlamarBlue cell viability in HIVIL. As to conditions: for IC50: Homo sapiens. As for the experimental part:
as §1

Data set [3] relates to IL-6. Briefly: IL-6 ELISA in iPSC(F4)-derived HIVIL. Format: cell-based, human. As to conditions: result in words. How it is done: (§2) Enzyme-linked immunosorbent assay (ELISA) for measurement of cytokines: Interleukin-6 (IL-6), interleukin-10 (IL-10) and tumor necrosis factor alpha (TNFα) levels in the media were measured using the corresponding human-based ELISA kits (Abcam, Cambridge, United Kingdom) according to manufacturer’s instructions. The cytokine production from dosed cells was normalized with the viability value from the same well. The normalized cytokine level upon drug treatments was further presented as percentage of DMSO+LPS. Normalization to viability per well ensures that any changes in cytokines are not due to changes in cell numbers upon drug treatment and normalization to DMSO+LPS allows better comparison between different batches of experiments. This normalization approach has been used in previous studies (Rose et al. 2016).
In general terms: In an ELISA, binding on a coated surface is turned into a signal by an enzyme label.

The subject of data set [4] is IL-6. In words: IL-6 production of iKC mono-culture. Format: cell-based, human. The following applies: result in words. As for the experimental part:
as §2

Data set [5] has as its system IL-10. On the set-up: method as in Bekker et al. 2016. As to conditions: ref Bekker et al. 2016; cited from earlier work.
For data set [6], the system named is cytokines. More on the design: method as in ref Ganey et al. 2004; Honarmand et al. 2012; Manna and Aggarwal 1999; Yao et al. 2004. The following applies: ref Ganey et al. 2004; Honarmand et al. 2012; Manna and Aggarwal 1999; Yao et al. 2004; cited from earlier work.
Data set [7] has as its system IL-6. The following applies: other in vitro models deploying 1-10 μg/mL of LPS; ref Jiang et al. 2019; Li et al. 2020; cited from earlier work.
The conditions of data set [8]: FDA-labeling information; ref Chen et al. 2016; cited from earlier work.
Data set [9] deals with IL-10. Briefly: IL-10 ELISA in HIVIL (iKCs co-cultured with iHeps, LPS, 48 hr). The following applies: result in words. The data set is classed as cell-based, human. The text has this: Human iPSC cell line iPS (IMR90)-4 was purchased from WiCell Research Institute (Madison, WI), and maintained with a feeder-free method according to the instruction from […] Technologies (Vancouver, BC, Canada). The protocol of differentiation towards iKCs and iHeps as described previously with slight modification ([Tasnim et al., 2019]; [Cai et al., 2012]), respectively. […] More details are provided in Supplementary Methods. After differentiation, iKCs was harvested using 0.05 % trypsin-EDTA (Gibco, Waltham, Massachusetts, USA), while iHeps were dissociated with TrypLE^TM (Gibco). iHep suspension was further filtered through a 40 µm cell strainer to remove extracellular matrix clumps. Cell suspension was centrifuged at 1000 rpm for 5 min. For co-culture set up, tissue culture plates were coated with Rat tail collagen I (Gibco) diluted 100-fold in 0.02 N acetic acid, and incubated at 37 °C for 1 h and washed 3 times with PBS. […]
Enzyme-linked immunosorbent assay (ELISA) for measurement of cytokines: Interleukin-6 (IL-6), interleukin-10 (IL-10) and tumor necrosis factor alpha (TNFα) levels in the media were measured using the corresponding human-based ELISA kits (Abcam, Cambridge, United Kingdom) according to manufacturer’s instructions. […]

The subject of data set [10] is IL-6. In words: IL-6 response in HIVIL using THP-1 macrophages co-cultured with iHeps. Format: cell-based, human. As to conditions: HIVIL with THP-1 instead of iKCs, result in words.
Description: Human iPSC cell line iPS (IMR90)-4 was purchased from WiCell Research Institute (Madison, WI), and maintained with a feeder-free method according to the instruction from […] Technologies (Vancouver, BC, Canada). The protocol of differentiation towards iKCs and iHeps as described previously with slight modification ([Tasnim et al., 2019]; [Cai et al., 2012]), respectively. The re-optimized protocol to generate iKCs is discussed in Results section. More details are provided in Supplementary Methods. After differentiation, iKCs was harvested using 0.05 % trypsin-EDTA (Gibco, Waltham, Massachusetts, USA), while iHeps were dissociated with TrypLE^TM (Gibco). iHep suspension was further filtered through a 40 µm cell strainer to remove extracellular matrix clumps. Cell suspension was centrifuged at 1000 rpm for 5 min. For co-culture set up, tissue culture plates were coated with Rat tail collagen I (Gibco) diluted 100-fold in 0.02 N acetic acid, and incubated at 37 °C for 1 h and washed 3 times with PBS. According to the protocol optimized by [Tasnim et al. (2019)], iKCs was firstly seeded at a density of 14,000 per well on 96-well plate with Advanced DMEM (plus supplements) containing 5 % FBS. On the following day, iHeps were added at a density of 35,000 per well in Williams’ Medium E (plus supplements) (iHep: iKCs ratio = 2.5: 1). This reflects the physiological ratio of these cells in vivo under inflammatory conditions ([Tasnim et al., 2021]). Fresh media containing drugs was applied to co-cultures the next day. 50,000 cells were seeded to establish iHeps monoculture. THP-1 cells were kindly obtained from Dr. Eliza Fong and cultured as described by [Zeng et al. (2015)]. Details provided in Supplementary Methods.
THP-1 maintenance and differentiation: THP-1 monocytic lineage was maintained in RPMI 1640 with 10% FBS. For differentiation to macrophages, suspension cells were collected and subjected to 2-day phorbol 12-myristate 13-acetate (PMA) treatment (50 ng/ml), followed by a 1-day PMA-free medium resting. THP-1 macrophages were trypsinzed and used for co-culture as described in Material and methods.
as §2

The conditions of data set [11]: Cammett et al. 2009, Mendes et al. 2014, cited from earlier work.
Data set [12] relates to IL-6. More on the design: method as in Steuerwald et al. 2013; Mahdy et al. 2002; Kang et al. 2001. The following applies: ref Steuerwald et al. 2013; Mahdy et al. 2002; Kang et al. 2001; cited from earlier work.
Data set [13] has as its system IL-10. On the set-up: method as in Mahdy et al. 2002. The following applies: ref Mahdy et al. 2002; cited from earlier work.
Data set [14] concerns PHH-PHKC co-culture. More on the design: method as in Messner et al., 2013; Sarkar et al., 2017. As to conditions: ref Messner et al., 2013; Sarkar et al., 2017; cited from earlier work.
The test system of data set [15] is PHH. More on the design: method as in Mennecozzi et al., 2015. As to conditions: ref Mennecozzi et al., 2015; read-out: IC50 in PHH mono-cultures; cited from earlier work.
Data set [16] deals with iHeps mono-cultures. More on the design: method as in Kia et al., 2015. The following applies: ref Kia et al., 2015; cited from earlier work.
The conditions of data set [17]: binary classification by human hepatotoxicity; ref Thakkar et al. 2020; cited from earlier work.
Where [18] appears, read: 48 h, read-out: IC50: viability.

Read-outs that look alike come from different tables or passages of the source.

By IC50 is commonly meant the concentration that gives 50% inhibition. Turning to `CC(=O)Nc1ccc(O)cc1` [APAP, acetaminophen], in data set [1] (2 mM), the “reduction of IL-6 in HIVIL” value is given as ~50%. In addition, in [1] (HIVIL), the “group by drug-dependent IL-6 production” value is on record as “dose-dependent inhibition”, the “reduction of IL-6” value is 50%, the IL-6 response result is listed as “decreased” and the IC50 is 5360 µM. For the same molecule, the IC50 in [2] (setting [18]) was determined as 10200 µM. Besides, in data set [2] (comparison of mono-cultures and co-culture), the “viability profiles among iHeps, iKCs and HIVIL” value is on record as “similar”. Also, the IL-6 production entry in data set [3] is given as “Dose-dependent decrease”. Moreover, the “IL-6 / cytokine production in iKC mono-culture” value in [4] is given as “remained unchanged”. In addition, the “Reported in-vivo (murine) responses: IL-10” value in [5] is recorded as “IL-10↓”. For the same molecule, the “Reported in-vivo (murine) responses: cytokines” value in data set [6] is on record as “IL-6/IL-10 are protective factors”. In data set [7], the IL-6 change result is “increased”. Moreover, the DILIrank entry in data set [8] is “most”.
In general, Cmax refers to the peak of the concentration-time curve. Take `O=C(O)Cc1ccccc1Nc1c(Cl)cccc1Cl` [DIC, diclofenac]: in data set [1] (HIVIL), the IL-6 response result is “dose-dependent decrease”. The half-maximal inhibitory concentration (IC50) in data set [1] (HIVIL) was 112 µM; in data set [2] (setting [18]), 385 µM; in data set [2] (read-out: IC50 (drug toxicity) in HIVIL), 385 µM; in data set [14], ~127 µM; in data set [15] it was ~1000 µM; in data set [16], ~1000 µM. In addition, the IL-10 response result in data set [9] is on record as “decrease”. Also, the “drug-specific IL-6 response with THP-1 macrophages” value in data set [10] is on record as “did not detect”. Also, the IL-6 production entry in [3] is reported as “Dose-dependent decrease”. For the same molecule, the Cmax in data set [11] (ref in each cell: Ademisoye et al. 2018, Xu et al. 2008, Agabeyoglu and Incecayir 2009, Rojanasthien et al. 2007, Reunanen et al. 1992, Li et al. 2002, Hong-mei et al. 2013, Bareggi et al. 1987, Jiang et al. 2008) was 8 µM; in data set [11] (ref in each cell: Xu et al. 2008), 8 µM. For the same molecule, the “Reported human responses: IL-6” value in data set [12] is given as “IL-6↓”. In data set [13], the “Reported human responses: IL-10” value is “IL-10↑”. The DILIrank result in [8] is listed as “most”. Also, the DILIst in data set [17] is reported as 1.
